Eight compounds from US12060388B2, “Cell-penetrating peptides and methods of use thereof” (priority 2018, dated 2024) can be followed below.

Experiment [1] relates to HPV16 PsV. Nature of the experiment: HPV16 PsV infectivity in HeLa S3 cells with chemical inhibitors. Type of experiment: cell-based. The conditions noted are these: MOI of one, 48 h.p.i. As for the experimental part: 5×10^4 HeLa S3 or HaCaT cells in 12-well plates were incubated with PsVs at MOI of approximately one. The number of packaged reporter plasmids required to achieve this MOI as assessed by flow cytometry for reporter gene expression from wild-type PsV was quantified by qPCR, and an equivalent number of genomes in mutant PsV were used to infect cells. Approximately five-fold more virus was used to attain this MOI in HaCaT cells. Cells were analyzed by flow cytometry on a Stratedigm-12 flow cytometer to determine the fraction of cells displaying HcRed fluorescence 48 h.p.i. To measure dependence on retromer, 1×10^5 HeLa S3 cells in a 12-well plate were transfected […] to infection with 10 pmol siRNAs targeting Vps29 (Dharmacon, Lafayette, CO; #D-009764-03) or Vps35 (Dharmacon, #D-010894-01) by using RNAiMAX (Thermo Fisher, Waltham, MA, #13778100) according to manufacturer's protocol. Cells transfected with a 10 pmol RISC-free siRNA were used as a control. Forty-eight h.p.i., infectivity was measured by flow cytometry for reporter gene expression. […] Forty-eight h.p.i., infectivity was measured by flow cytometry for HcRed expression. […] Forty-eight h.p.i., infectivity was measured by flow cytometry for HcRed expression.

Experiment [2] relates to HaCaT cells. Nature of the experiment: Modulation of CPP action by flanking sequences, GFP fusion proteins on HaCaT cells. The experiment is classed as cell-based, human. As for the experimental part:
Fusion proteins with various segments of the C-terminus of HPV16 or HPV5 L2 were added to HaCaT cells. The sequences used are as follows:
In some cases, various concentrations of fusion proteins were added to assess efficacy. In other cases, the pH of the culture medium was physiological pH 7 or adjusted to acidic pH 4 prior to peptide addition, or the cells were incubated with peptide at physiological temperature of 37° C. or at 30° C. Activity was assessed by confocal microscopy for intracellular fluorescence. In some experiments, cell surface fluorescence was extinguished by treatment with the membrane-impermeable fluorescence quencher, trypan blue.

For experiment [3], the target named is T1, retromer (Vps35) (Homo sapiens, UniProt O75436+Q96QK1).
T1 construct: endogenous in cells; host or cells: HeLa S3 lysate (RIPA-MOPS buffer)
In words: Biotinylated peptide pull-down from HeLa S3 lysate, blot for Vps35. Type of experiment: binding. The conditions noted are these: streptavidin pull-down. As for the experimental part: For peptide pull-down experiments, N-terminal biotinylated L2 peptides (sequences shown in FIG. 2A) were purchased from ABClonal Science (Woburn, MA) at >95% purity. L2 wild-type was dissolved initially in 30% acetic acid and DMSO (˜70 μl each), and then dissolved in sterile deionized water with 0.01% sodium azide. L2-6A, L2-3R and L2-DM were initially solubilized in a small amount of DMSO (˜70-80 μl) and then dissolved in sterile deionized water with 0.01% sodium azide. Peptide stocks (5 mg/ml) were aliquoted and stored at −20° C. HeLa S3 cells plated in six-well plates were lysed at ˜80% confluency with 500 μl RIPA-MOPS buffer (20 mM morpholinepropanesulfonic acid [pH 7.0], 150 mM NaCl, 1% Nonidet P-40, 1 mM EDTA, 1% deoxycholic acid, 0.1% sodium dodecyl sulfate [SDS]) supplemented with protease inhibitors (1×HALT protease and phosphatase inhibitor cocktail (Thermo Scientific, Waltham, MA; #78443)). The lysate was centrifuged at 14,000 rpm for 20 min, and the supernatant was incubated with 10 μg of a biotinylated peptide for two h at 4° C. Fifty μl of streptavidin agarose beads slurry (Pierce, Rockford, IL; #20349) was added, and the mixture was gently rocked for 45 min at 4° C. […] Samples were analyzed by SDS-PAGE and immunoblotting with antibody recognizing Vps35 (Abcam, Cambridge, MA; ab57632).

For experiment [4], the system named is HPV16 PsV containing GFP11-tagged L2. In words: Split GFP assay with aphidicolin, HaCaT/GFP1-10NES cells. Type of experiment: cell-based. The conditions noted are these: 6 μM, MOI of 2000, three h.p.i. The procedure:
FIG. 12A depicts HeLa S3 cells left untreated or treated with 6 μM aphidicolin. Twenty-four h later, cells were infected at MOI of one with wild-type HPV16 PsV or PsV containing L2-GFP11-CPP or L2-CPP-GFP11. Forty-eight h.p.i., the fraction of infected cells was determined by flow cytometry for HcRed fluorescence and normalized to untreated cells infected with wild-type HPV16 PsV. FIG. 12B depicts HaCaT/GFP1-10NES cells infected at an MOI of 2000 with wild-type HPV16 PsV or PsV containing GFP11-tagged L2 in the presence of absence of 6 μM aphidicolin. Three h.p.i., cells were examined by confocal microscopy for reconstituted GFP fluorescence. Fluorescence in individual cells (˜250 for each condition) is plotted from two independent experiments. […]
Generation of stable cell lines. […] Single cells were then plated in a 96-well plate, and monoclonal cell lines were isolated and tested by infection of HPV16-CPP-GFP11 PsV at ˜2000 MOI and monitoring fluorescence. […] Images were acquired with a Leica SP5 inverted fluorescence microscope to identify cell lines expressing cytoplasmic GFP1-10NES. […] Twenty-four hours later, live cells were examined by fluorescence microscopy. […] Twenty-four h later, live cells were examined by fluorescence microscopy. As expected, fluorescence with GFP11-CD8-CIMPR was reconstituted only when the GFP1-10 segment was luminal (FIG. 8F). […]

The test system of experiment [5] is wild-type HPV16 pseudovirus. In words: Peptide inhibition experiment with L2-C, HeLa cells. Type of experiment: cell-based. The conditions noted are these: 4 μg peptide, infectivity 48 hours later. The procedure: HeLa cells were treated at 37° C. with 4 μg L2-C, a peptide containing the HPV16 L2 retromer binding site and CPP or mock treated. B represents N terminal biotinylation and Am represents C-terminal amidation. Two hours later, the cells were infected for two hours at 37° C. with wild-type HPV16 pseudovirus. Cells were washed and medium was replenished with medium containing the peptide for 24 hours. Infectivity was tested 48 hours later by using flow cytometry to measure fluorescence of HcRed expressed from a plasmid encapsidated in the pseudovirus particle. Similar results were obtained in two independent experiments.
HeLa cells were left untreated or treated at 37° C. with 4 μg L2-C, a peptide containing the HPV16 L2 retromer binding site and CPP. The sequence of L2-C is as follows: B-[…]-Am, (SEQ ID NO: 533), where B represents N-terminal biotinylation and Am represents C-terminal amidation. Two hours later, the cells were infected for two hours at 37° C. with wild-type HPV16 pseudovirus. Cells were washed and medium was replenished with medium containing the peptide for 24 hours. Infectivity was tested 48 hours later by using flow cytometry to measure fluorescence of HcRed expressed from a reporter plasmid encapsidated in the pseudovirus particle, and normalized to infectivity of cells infected in the absence of peptide. Similar results were obtained in two independent experiments.

No end group written: not given here. *: point of attachment. Biotin = O=C1N[C@H]2[C@H](CS[C@H]2CCCCC(=O)*)N1

On to `C[C@H](NC(=O)Cc1cc(F)cc(F)c1)C(=O)N[C@H]1N=C(c2ccccc2)c2ccccc2N(C)C1=O` [XXI], for which, in experiment [1] (250 nM, pretreated one h), the “inhibition of wild-type and L2-Tat PsV infection” value is listed as “near-complete inhibition”.
As for “His6-GFP-linker-IPVVIIHPHDSTGDFYLHPSLHRRKRKRKYL [GFP fusion protein with HPV5 C-terminus]”, the “cell binding, temperature dependence” value in experiment [2] (three hours, 30° C. or 37° C.) was “better at 30 °C than at 37 °C”.
With His6-GFP-linker-RKRRKR, in experiment [2] (three hours at 37° C.), the “cell binding and entry at pH 7” value is “active in cell binding and internalization, but is not as efficient”.
Consider “L2-3R: N-terminal biotinylated C-terminal L2 peptide with the 3R mutation (Biotin-SPQYTIIADAGDFYLHPSYYMLRRR)”, for which, in experiment [3], the “retromer binding of L2 peptide in vitro” value was “did not affect retromer binding”.
With `C[C@@]1(CO)[C@H](O)CC[C@@]2(C)[C@H]1CC[C@H]1C[C@@H]3C[C@@]12CC[C@]3(O)CO` [aphidocolin, aphidicolin], the “effect on HPV infection” value in experiment [1] (6 μM, pretreated 24 h) is reported as “inhibited infection”. Moreover, the “reconstituted GFP signal” value in experiment [4] is recorded as “did not decrease the reconstituted GFP signal”.
On to “B-SPQYTIIADAGDFYLHPSYYMLRKRRKR-Am [L2-C]”, for which, in experiment [5], the “inhibition of infection by HPV16 PsV” value is “dramatic inhibition of infection”.
For “His6-GFP-linker-PQYTIIADAGDFYLHPSYYMLRKRRKR [GFP-21P-CPP]”, in experiment [2] (three hours at 37° C.), the “cell binding and entry at pH 7” value was “binds”.
Take “His6-GFP-linker-PQYTIIADAGDFYLHPSYYMLRKRRKRLPYFFSDVSLAA [GFP-HPV16 L2]”: the “cell binding and entry at pH 4” value in experiment [2] (three hours at 37° C., pH 4) is reported as “well”. Also, in experiment [2] (three hours at 37° C.), the “cell binding and entry at pH 7” value is reported as “poorly”.
